From patent US20170037480A1, “HSF1 IN TUMOR STROMA” (Whitehead Institute for Biomedical Research, priority 2014, published 2017)
“Also recorded” adds a separate entry of the source.

What was measured:
[1] = test system: D2A1 cells co-cultured with WT MEFs; assay: Co-culture of dsRed D2A1 cancer cells on WT MEF feeder layer, cancer cells counted by flow cytometry; format: cell-based, mouse; details: LY2109761, MEFs pretreated 30 minutes, 72 h, daily supplementation; p=0.008
Method: (A) The relative expression of Sdf1, Tgfβ1 and Tgfβ2 in WT or Hsf1 null immortalized MEFs was measured by quantitative PCR. mRNA expression levels were normalized to the house keeping gene Gapdh. The mean of 3 independent experiments is shown. Error bars, SEM. *p<0.05, **p<0.01. (B-C) WT or Hsf1 null immortalized MEFs were plated and treated with mitomycin C as in FIG. 3A. D2A1 cells marked with dsRed were then seeded on top of the MEFs in the presence or absence of 10 ng/ml TGFβ1 and 100 ng/ml SDF1. After 96 h, cells were either visualized by fluorescent microscopy (B) or trypsinized and quantitated by flow cytometry (C). The percentage of cancer cells in co-culture is presented. The experiment was repeated 3 times, in triplicate. Representative results of one experiment are shown as the mean+/−SEM. *p<0.05. […] Cultures were continued for 72 h, with daily supplementation of LY2109761 (or not, as control), and then analyzed as in (C). […] Results are expressed as the mean relative number of cancer cells, normalized to the non-drug treated co-cultures with WT MEFs. […] (E) Immortalized WT MEFs stably expressing shRNA hairpins targeting Smad2 (shSmad2) or GFP (shGFP) were co-cultured with D2A1 cells, treated and analyzed as in (C). […] IPs were analyzed by qPCR with primers targeting potential heat shock elements in mouse Sdf1 and Tgfβ2. […]

D2A1 cancer cells = assay: Growth of D2A1 cancer cells grown alone (no MEFs), Cell-Titer Glo luminescence; format: cell-based, mouse; details: LY2109761 1 μM, 72 h, daily re-addition of inhibitor
Method: Figs. S4A-S4F show additional results. (A) Tgfβ and Sdf1 mRNA levels are regulated by HSF1 in primary MEFs. The relative expression of Sdf1, Tgfβ1 and Tgfβ2 in three separate sets of WT or Hsf1 null MEFs (each derived from a different pregnancy) was measured by quantitative PCR. mRNA expression levels were normalized to the house keeping gene Gapdh. The experiment was repeated 3 times (each time with a different set of primary MEFs), in triplicate. Representative results are shown as the mean+/−SEM. *p<0.05, **p<0.01, ***p<0.001. […] WT or Hsf1 null immortalized MEFs were plated and treated with mitomycin C. D2A1 cells marked with dsRed were then seeded on top of the MEFs in the presence or absence of 10 ng/ml TGFβ1, 100 ng/ml SDF1 or a combination of both. After 96 h, cells were trypsinized and quantitated by flow cytometry. The percentage of cancer cells in the co-culture is presented. The experiment was repeated 3 times, in triplicate. […] Relative cell number was measured by luminescence using Cell-Titer Glo reagent (Promega). […] After growth for 96 h, cells were trypsinized and quantitated by flow cytometry. […] Relative levels of SMAD2 in WT immortalized MEFs (left two panels) or D2A1 cells (right two panels) were measured by immunoblotting lysates prepared from cells stably expressing shRNA hairpins targeting Smad2 (shSmad2) or GFP (shGFP). […]

[2] = test system: D2A1 cells co-cultured with Hsf1 null MEFs; assay: Co-culture of dsRed D2A1 cancer cells on Hsf1 null MEF feeder layer, cancer cells counted by flow cytometry; format: cell-based, mouse; details: for cancer cell growth (percentage of cancer cells) in co-culture with Hsf1 null MEFs on addition of recombinant proteins: 10 ng/ml TGFβ1, 100 ng/ml SDF1, added once, 96 h
Method: (A) The relative expression of Sdf1, Tgfβ1 and Tgfβ2 in WT or Hsf1 null immortalized MEFs was measured by quantitative PCR. mRNA expression levels were normalized to the house keeping gene Gapdh. The mean of 3 independent experiments is shown. Error bars, SEM. *p<0.05, **p<0.01. (B-C) WT or Hsf1 null immortalized MEFs were plated and treated with mitomycin C as in FIG. 3A. D2A1 cells marked with dsRed were then seeded on top of the MEFs in the presence or absence of 10 ng/ml TGFβ1 and 100 ng/ml SDF1. After 96 h, cells were either visualized by fluorescent microscopy (B) or trypsinized and quantitated by flow cytometry (C). The percentage of cancer cells in co-culture is presented. The experiment was repeated 3 times, in triplicate. Representative results of one experiment are shown as the mean+/−SEM. *p<0.05. (D) Immortalized WT or Hsf1 null mitomycin-treated MEFs were pretreated, or not, with LY2109761 for 30 minutes before D2A1 cells marked with dsRed were seeded on top. Cultures were continued for 72 h, with daily supplementation of LY2109761 (or not, as control), and then analyzed as in (C). The experiment was repeated 3 times, in triplicates. Results are expressed as the mean relative number of cancer cells, normalized to the non-drug treated co-cultures with WT MEFs. […] (E) Immortalized WT MEFs stably expressing shRNA hairpins targeting Smad2 (shSmad2) or GFP (shGFP) were co-cultured with D2A1 cells, treated and analyzed as in (C). […] IPs were analyzed by qPCR with primers targeting potential heat shock elements in mouse Sdf1 and Tgfβ2. […]
Figs. S4A-S4F show additional results. […] The relative expression of Sdf1, Tgfβ1 and Tgfβ2 in three separate sets of WT or Hsf1 null MEFs (each derived from a different pregnancy) was measured by quantitative PCR. mRNA expression levels were normalized to the house keeping gene Gapdh. […] After 96 h, cells were trypsinized and quantitated by flow cytometry. […] Relative cell number was measured by luminescence using Cell-Titer Glo reagent (Promega). […] After growth for 96 h, cells were trypsinized and quantitated by flow cytometry. […]

HSF1 [3] = details: recent chemical screening effort; cited from earlier work
HSF1 [4] = assay: Effect of RHT on expression of HSF1 stromal signature genes in Hsf1+/+ versus Hsf1-/- MEFs; format: cell-based, mouse; details: reduced in treated Hsf1+/+ MEFs but not in Hsf1-/- MEFs
Description: A combination of experimental and bioinformatic approaches was used to define a set of HSF1-regulated genes of particular use for assessing the level of HSF1 activity in tumor-associated stromal cells for purposes of cancer classification, diagnosis, prognosis, treatment-specific prediction, and treatment selection. The pipeline started with the Group 1 and Group 4 gene lists described above. As described above, these 871 genes have increased expression in Hsf1+/+ versus Hsf1−/−MEFs. These 871 genes map to 562 genes in the Finak, G. et al. dataset discussed above (GEO (GSE9014)). […] Its structure is depicted below.
The 562 genes that mapped to genes in the Finak dataset were tested to determine the effect of RHT on their expression in Hsf1+/+MEFs versus […] MEFs. […] A filter was applied to these genes to identify those that were differentially expressed in tumors in the Finak dataset with poor versus good outcomes.

In the case of `c1ccc(-c2nn3c(c2-c2ccnc4cc(OCCN5CCOCC5)ccc24)CCC3)nc1` [LY2109761], the “growth of D2A1 cancer cells in co-culture with WT MEFs (relative number of cancer cells)” value [1] is reported as “significantly reduce their growth”, the “growth or survival of D2A1 cancer cells grown alone (relative cell number)” value (D2A1 cancer cells) is reported as “did not affect; also recorded: does not directly inhibit” and the “growth of D2A1 cancer cells in co-culture with Hsf1 null MEFs (relative number of cancer cells)” value ([2]; LY2109761, MEFs pretreated 30 minutes, 72 h, daily supplementation, p=0.1) is reported as “A smaller effect, that did not reach statistical significance”.
In the case of `COc1ccc([C@@]23Oc4cc(OC)cc(OC)c4[C@]2(O)[C@H](O)[C@H](C(=O)N(C)OC)[C@H]3c2ccccc2)cc1` [Rohinitib], the “inhibition of HSF1 activity” value (HSF1 [3]) is given as “potent inhibitor” and the “number of genes (of 562 tested) whose expression was suppressed in an HSF1-dependent fashion” value (HSF1 [4]) is given as 95.
For “SDF1: purified recombinant protein (R&D systems, 460-SD-010)”, the “cancer cell growth (percentage of cancer cells) in co-culture with Hsf1 null MEFs on addition of recombinant proteins” value [2] was “Partial effects, that did not reach statistical significance”.
In the case of “TGFβ1: purified recombinant protein (R&D systems, 240-B-002)”, the “cancer cell growth (percentage of cancer cells) in co-culture with Hsf1 null MEFs on addition of recombinant proteins” value [2] is reported as “Partial effects, that did not reach statistical significance”.
